Data reported in patent US9284345B2 (priority 2007, dated 2016).
Several values for one entry are separate records, joined by “and”; a condition that tells them apart may be missing. Equal values may be shown once. Read-outs that look alike come from different tables or passages of the source.

Tests used:
Immature Rat CX + DHT = experiment: animal or person; assay type: in vivo; conditions: po; for change in vivo at 0.1 mg: Rattus norvegicus, 168 h
Intact Rat = experiment: In vivo activity in intact rat (organ and muscle weight)
Immature Rat CX = conditions: for In Vivo Agonist % Change vs CX (DHT = +100%) SV / In Vivo Agonist % Change vs CX (DHT = +100%) VP: po
[1] = tested on: Shionogi mouse mammary carcinoma cells; experiment: cells; assay type: cell-based; conditions: for % of inh of DHT at 10^−7 M (Basal = 100%): 0.0003 µM; for Ki: read-out: Shionogi cells Antiandrogenic activity Ki
Human Androgen Receptor = target: T1, Human Androgen Receptor (Homo sapiens, UniProt P10275); assay type: binding
T1 construct: expressed in transfected cells; host or cells: HEK-293 cells stably transfected with the pCMVneo-hAR plasmid (G-418 selection); cytosol used
T1 sequence (P10275 1-920): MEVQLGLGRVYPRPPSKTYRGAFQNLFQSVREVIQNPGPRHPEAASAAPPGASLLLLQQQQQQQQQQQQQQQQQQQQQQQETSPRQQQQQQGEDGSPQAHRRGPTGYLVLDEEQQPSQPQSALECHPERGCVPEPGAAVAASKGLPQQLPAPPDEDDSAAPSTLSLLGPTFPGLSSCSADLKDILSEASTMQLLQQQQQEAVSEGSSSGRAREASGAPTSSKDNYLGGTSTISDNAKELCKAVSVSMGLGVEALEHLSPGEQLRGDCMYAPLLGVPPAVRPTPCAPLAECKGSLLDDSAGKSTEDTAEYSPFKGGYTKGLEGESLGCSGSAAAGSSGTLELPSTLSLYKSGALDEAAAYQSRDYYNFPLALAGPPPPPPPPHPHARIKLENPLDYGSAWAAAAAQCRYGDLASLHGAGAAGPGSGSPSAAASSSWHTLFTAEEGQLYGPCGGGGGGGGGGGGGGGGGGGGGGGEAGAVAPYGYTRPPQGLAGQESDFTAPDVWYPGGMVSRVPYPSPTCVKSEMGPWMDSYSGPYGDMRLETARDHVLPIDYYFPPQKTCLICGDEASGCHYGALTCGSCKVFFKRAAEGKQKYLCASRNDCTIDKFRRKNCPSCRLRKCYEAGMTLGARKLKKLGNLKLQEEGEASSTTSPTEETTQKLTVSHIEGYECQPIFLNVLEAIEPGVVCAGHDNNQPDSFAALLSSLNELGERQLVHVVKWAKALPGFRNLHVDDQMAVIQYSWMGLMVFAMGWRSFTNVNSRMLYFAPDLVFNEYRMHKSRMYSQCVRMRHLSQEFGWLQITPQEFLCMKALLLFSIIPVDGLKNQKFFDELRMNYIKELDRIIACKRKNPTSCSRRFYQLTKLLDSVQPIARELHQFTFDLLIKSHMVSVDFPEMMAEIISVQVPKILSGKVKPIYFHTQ

[2] = read-out: In Vivo Antagonist % Change vs DHT (CX = −100%) SV
[3] = read-out: In Vivo Antagonist % Change vs DHT (CX = −100%) VP

Row | SMILES | In Vivo Anti-A Rat CX + DHT % change vs DHT (CX CONT = −100%) SV (Immature Rat CX + DHT; rat, in vivo) | In Vivo Anti-A Rat CX + DHT % change vs DHT (CX CONT = −100%) VP (Immature Rat CX + DHT; rat, in vivo) | In Vivo Intact Rat % change vs Intact CONT (Intact CONT = +100%; CX CONT = 0%) Bulbo (Intact Rat; rat, in vivo) | In Vivo Intact Rat % change vs Intact CONT (Intact CONT = +100%; CX CONT = 0%) SZ (Intact Rat; rat, in vivo) | In Vivo Intact Rat % change vs Intact CONT (Intact CONT = +100%; CX CONT = 0%) VP (Intact Rat; rat, in vivo) | In Vivo Agonist Rat CX % change vs CX (DHT CONT = +100%) Bulbo (Immature Rat CX) | In Vivo Agonist Rat CX % change vs CX (DHT CONT = +100%) SV (Immature Rat CX) | In Vivo Agonist Rat CX % change vs CX (DHT CONT = +100%) VP (Immature Rat CX) | % of stim of basal at 10^−7M (% over basal) [1] | % of stim of basal at 10^−7 M (DHT = 100%) [1] | % of inh of DHT at 10^−7 M (Basal = 100%) [1] | Human Androgen Receptor Binding RBA (%) R1881 = 100% (Human Androgen Receptor) | change in vivo at 0.1 mg (Immature Rat CX + DHT; [2]) | change in vivo at 0.1 mg (Immature Rat CX + DHT; [3]) | In Vivo Agonist % Change vs CX (DHT = +100%) SV (Immature Rat CX) | In Vivo Agonist % Change vs CX (DHT = +100%) VP (Immature Rat CX) | Shionogi cells Antiandrogenic activity Ki OH-Flu/Ki compound [1] | Ki [1] | other results
1 | CC1CC2(C)C(CCC2(O)Cc2cc[n+]([O-])cc2F)C2CCc3c(ccc(C#N)c3F)C12 (stereo not shown) [EM-6595] | [−74 ± 3] % | [−56 ± 5] % | +162 ± 9% | +40 ± 3% | +67 ± 10% | +97 ± 9% | +14 ± 1% | +28 ± 3% | +117 ± 11% | +43 ± 13% | −58 ± 13% | 13% |  |  |  |  |  |  | 
2 | C[C@]12CCC3c4ccc(C#N)c(F)c4CCC3C1CC[C@@]2(O)Cc1ccncc1F (stereo partly shown) [EM-8455] |  |  |  |  |  |  |  |  |  |  |  | 9.1% | -85 ± 4% | -49 ± 3% | +1 ± 2% | 0% | 3.1 | 1.9 nM | 
3 | Cc1cnccc1C[C@]1(O)CCC2C3CCc4c(ccc(C#N)c4F)C3CC[C@@]21C (stereo partly shown) [EM-8504] |  |  |  |  |  |  |  |  |  |  |  | 6.1% | -75 ± 2% | -51 ± 13% |  |  | 7.5 | 2.5 nM | 
4 | C[C@]12CCC3c4ccc(C#N)c(F)c4CCC3C1CC[C@@]2(O)Cc1ccncc1Cl (stereo partly shown) [EM-8632] |  |  |  |  |  |  |  |  |  |  |  | 47% |  |  |  |  | 2.1 | 4.1 nM | In Vivo Antagonist % Change vs DHT (CX = −100%) SV (Immature Rat CX + DHT; rat, in vivo): −74 ± 3%; In Vivo Antagonist % Change vs DHT (CX = −100%) VP (Immature Rat CX + DHT; rat, in vivo): −43 ± 6%
5 | C[C@]12CCC3c4ccc(C#N)c(F)c4CCC3C1CC[C@@]2(O)Cc1cc[n+]([O-])cc1Cl (stereo partly shown) [EM-8633] |  |  |  |  |  |  |  |  |  |  |  | 2.3% | -83% | -42 ± 5% | 1% | 0% |  | 0.8 nM | 
6 | CC[C@H]1C[C@@]2(C)C(CC[C@@]2(O)Cc2ccncc2)C2CCc3c(ccc(C#N)c3F)C21 (stereo partly shown) [EM-8986] | −25 ± 4% | −24 ± 3% | +241 ± 27% | +98 ± 7% | +76 ± 11% | +149 ± 13% | +24 ± 3% | +35 ± 3% | +21% | +9% | +44% | 508% |  |  |  |  |  |  | In Vivo Anti-A Rat CX + DHT % change vs DHT (CX CONT = −100%) Bulbo (Immature Rat CX + DHT; rat, in vivo): +74 ± 13%
7 | CCC1CC2(C)C(CCC2(O)Cc2cc[n+]([O-])cc2)C2CCc3c(ccc(C#N)c3F)C12 (stereo not shown) [EM-8987] |  |  | +292 ± 30% | +110 ± 13% | +84 ± 4% | +118 ± 10% | +25 ± 5% | +56 ± 11% | +73% | +74% | +35% | 26% |  |  |  |  |  |  | 
8 | CC[C@H]1C[C@@]2(C)C(CC[C@@]2(O)Cc2ccncc2F)C2CCc3c(ccc(C#N)c3F)C21 (stereo partly shown) [EM-9016] | −39 ± 5% | −44 ± 3% |  | +44 ± 6% |  | +66 ± 25% | +17 ± 1% | +13 ± 2% | +45% | +39% |  | 2250% and 2250 ± 570% |  |  |  |  |  |  | In Vivo Anti-A Rat CX + DHT % change vs DHT (CX CONT = −100%) Bulbo (Immature Rat CX + DHT; rat, in vivo): +10 ± 9%; In Vivo Intact Rat % change vs Intact CONT (Intact CONT = +100%; CX CONT = 0%) Bulbo (Intact Rat; 0.1 mg/rat/os/ID, bulbocavernosus muscles weight): +108 ± 21%; In Vivo Intact Rat % change vs Intact CONT (Intact CONT = +100%; CX CONT = 0%) VP (Intact Rat; 0.1 mg/rat/os/ID, prostate weight): +53 ± 6%; inhibition at 0.0003 µM ([1]; Mus musculus, read-out: % of inh of DHT at 10^−7 M (Basal = 100%)): 46%
9 | Cc1c(C#N)ccc2c1CCC1C2CCC2(C)C1CCCC2(O)Cc1cc[n+]([O-])cc1 (stereo not shown) [EM-9140] |  |  |  |  |  |  |  |  |  |  |  | 1.4% |  |  | 0% | 0% | 11 | 1.2 nM | 
